How the values were obtained:
Assay in all cases: relative viability (nuclei count vs DMSO), 5 days (fraction); higher = more cells survive
Tozasertib + Crizotinib = compound: Cc1cc(Nc2cc(N3CCN(C)CC3)nc(Sc3ccc(NC(=O)C4CC4)cc3)n2)n[nH]1 [Tozasertib] + C[C@@H](Oc1cc(-c2cnn(C3CCNCC3)c2)cnc1N)c1c(Cl)ccc(F)c1Cl [Crizotinib] (partner 1 µM)
Method in brief: (§1)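 Five library-drug doses in √10 steps were combined with a fixed anchor-drug dose, or a single drug was given alone, by pin tool to lung cancer cell lines in 1536-well plates the day after seeding. Nuclei were stained and counted after 5 days. Relative viability is the nuclei count in treated wells over that in vehicle wells, taken as the median of duplicate plates.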

Tozasertib + Trametinib = compound: Cc1cc(Nc2cc(N3CCN(C)CC3)nc(Sc3ccc(NC(=O)C4CC4)cc3)n2)n[nH]1 [Tozasertib] + CC(=O)Nc1cccc(-n2c(=O)n(C3CC3)c(=O)c3c(Nc4ccc(I)cc4F)n(C)c(=O)c(C)c32)c1 [Trametinib] (partner 0.02 µM)
Method in brief: as §1

Tozasertib + Pemetrexed = compound: Cc1cc(Nc2cc(N3CCN(C)CC3)nc(Sc3ccc(NC(=O)C4CC4)cc3)n2)n[nH]1 [Tozasertib] + Nc1nc2[nH]cc(CCc3ccc(C(=O)N[C@@H](CCC(=O)O)C(=O)O)cc3)c2c(=O)[nH]1 [Pemetrexed] (partner 0.2 µM)
Method in brief: as §1

Tozasertib = compound: Cc1cc(Nc2cc(N3CCN(C)CC3)nc(Sc3ccc(NC(=O)C4CC4)cc3)n2)n[nH]1 [Tozasertib]
Method in brief: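 On vehicle-anchored 1536-well plates, lung cancer cell lines held overnight at 37 °C were pinned with five library-drug doses (not always all listed) spaced by √10. With no medium change over 5 days, they were then fixed, permeabilised and Hoechst-stained in one step and imaged at 4×. MetaXpress counted nuclei, and viability is the median across plates of treated-well over vehicle-well nuclei. Acceptance needed control CV below 25% and at least one doubling.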

Work on NCI-H2009 yielded a relative viability (Tozasertib + Crizotinib; first compound 0.004 µM) of 1.06, a relative viability (Tozasertib + Crizotinib; first compound 0.01265 µM) of 1.06 and a relative viability (Tozasertib + Crizotinib; first compound 0.04 µM) of 0.988. For the same cell line, the relative viability (Tozasertib + Crizotinib; first compound 0.1265 µM) was 0.847, the relative viability (Tozasertib + Trametinib; first compound 0.004 µM) was 0.288 and the relative viability (Tozasertib + Trametinib; first compound 0.01265 µM) was 0.288. It also gave a relative viability (Tozasertib + Trametinib; first compound 0.04 µM) of 0.341, a relative viability (Tozasertib + Trametinib; first compound 0.1265 µM) of 0.216 and a relative viability (Tozasertib + Pemetrexed; first compound 0.004 µM) of 1. It also gave a relative viability (Tozasertib + Pemetrexed; first compound 0.01265 µM) of 1.03, a relative viability (Tozasertib + Pemetrexed; first compound 0.04 µM) of 0.985 and a relative viability (Tozasertib + Pemetrexed; first compound 0.1265 µM) of 0.986. For the same cell line, the relative viability (Tozasertib; 0.004 µM) was 1.03, the relative viability (Tozasertib; 0.01265 µM) was 0.951 and the relative viability (Tozasertib; 0.04 µM) was 1. The relative viability (Tozasertib; 0.1 µM, anchor plate) was 0.74 and the relative viability (Tozasertib; 0.1265 µM) was 0.885.
